Data taken from patent publication US20180099931A1 (AbbVie S.à.r.l., priority 2016, published 2018).
Like-named read-outs stand apart in the source and are kept apart here.

Biological target: T1, F508delCFTR (Homo sapiens, UniProt P13569, DEL508-508)
T1 construct: expressed in transfected cells; host or cells: CFBE41o- human lung-derived epithelial cells (CFBE4lo-F508delCFTR-HRP), doxycycline-inducible
Test: Cell Surface Expression-Horse Radish Peroxidase (CSE-HRP) Assay;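 for Maximum % activity (with co-corrector): co-corrector and positive control are both the same reference corrector at 2 µM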;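 for Maximum % activity (without co-corrector): percent of the 2 µM on-plate positive control corrector response above DMSO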
Type: cell-based
Details: for Maximum % activity (with co-corrector) / Maximum % activity (without co-corrector) / Emax: maximum at any tested concentration, normalized to on-plate positive control; for Emax: read-out: Maximum % activity (without co-corrector)

[1] = test compound without co-corrector, read-out: EC50 (without co-corrector)
[2] = with co-corrector (2 μM of 3-[(2R,4R)-4-({[1-(2,2-difluoro-1,3-benzodioxol-5-yl)cyclopropyl]carbonyl}amino)-7-methoxy-3,4-dihydro-2H-chromen-2-yl]benzoic acid), read-out: EC50 (with co-corrector)
[3] = CSE-HRP, test compound without co-corrector, read-out: EC50 (without co-corrector)
[4] = CSE-HRP, with co-corrector (2 μM of 3-[(2R,4R)-4-({[1-(2,2-difluoro-1,3-benzodioxol-5-yl)cyclopropyl]carbonyl}amino)-7-methoxy-3,4-dihydro-2H-chromen-2-yl]benzoic acid), read-out: EC50 (with co-corrector)
[5] = CSE-HRP, with co-corrector (2 μM)
[6] = CSE-HRP, with co-corrector (2 μM), 2 µM
[7] = test compound without co-corrector
[8] = with co-corrector (2 μM of 3-[(2R,4R)-4-({[1-(2,2-difluoro-1,3-benzodioxol-5-yl)cyclopropyl]carbonyl}amino)-7-methoxy-3,4-dihydro-2H-chromen-2-yl]benzoic acid)
[9] = with co-corrector (2 μM of 3-[(2R,4R)-4-({[1-(2,2-difluoro-1,3-benzodioxol-5-yl)cyclopropyl]carbonyl}amino)-7-methoxy-3,4-dihydro-2H-chromen-2-yl]benzoic acid), 2 µM

T1 sequence (P13569 with tags, fused parts or gaps DEL508-508): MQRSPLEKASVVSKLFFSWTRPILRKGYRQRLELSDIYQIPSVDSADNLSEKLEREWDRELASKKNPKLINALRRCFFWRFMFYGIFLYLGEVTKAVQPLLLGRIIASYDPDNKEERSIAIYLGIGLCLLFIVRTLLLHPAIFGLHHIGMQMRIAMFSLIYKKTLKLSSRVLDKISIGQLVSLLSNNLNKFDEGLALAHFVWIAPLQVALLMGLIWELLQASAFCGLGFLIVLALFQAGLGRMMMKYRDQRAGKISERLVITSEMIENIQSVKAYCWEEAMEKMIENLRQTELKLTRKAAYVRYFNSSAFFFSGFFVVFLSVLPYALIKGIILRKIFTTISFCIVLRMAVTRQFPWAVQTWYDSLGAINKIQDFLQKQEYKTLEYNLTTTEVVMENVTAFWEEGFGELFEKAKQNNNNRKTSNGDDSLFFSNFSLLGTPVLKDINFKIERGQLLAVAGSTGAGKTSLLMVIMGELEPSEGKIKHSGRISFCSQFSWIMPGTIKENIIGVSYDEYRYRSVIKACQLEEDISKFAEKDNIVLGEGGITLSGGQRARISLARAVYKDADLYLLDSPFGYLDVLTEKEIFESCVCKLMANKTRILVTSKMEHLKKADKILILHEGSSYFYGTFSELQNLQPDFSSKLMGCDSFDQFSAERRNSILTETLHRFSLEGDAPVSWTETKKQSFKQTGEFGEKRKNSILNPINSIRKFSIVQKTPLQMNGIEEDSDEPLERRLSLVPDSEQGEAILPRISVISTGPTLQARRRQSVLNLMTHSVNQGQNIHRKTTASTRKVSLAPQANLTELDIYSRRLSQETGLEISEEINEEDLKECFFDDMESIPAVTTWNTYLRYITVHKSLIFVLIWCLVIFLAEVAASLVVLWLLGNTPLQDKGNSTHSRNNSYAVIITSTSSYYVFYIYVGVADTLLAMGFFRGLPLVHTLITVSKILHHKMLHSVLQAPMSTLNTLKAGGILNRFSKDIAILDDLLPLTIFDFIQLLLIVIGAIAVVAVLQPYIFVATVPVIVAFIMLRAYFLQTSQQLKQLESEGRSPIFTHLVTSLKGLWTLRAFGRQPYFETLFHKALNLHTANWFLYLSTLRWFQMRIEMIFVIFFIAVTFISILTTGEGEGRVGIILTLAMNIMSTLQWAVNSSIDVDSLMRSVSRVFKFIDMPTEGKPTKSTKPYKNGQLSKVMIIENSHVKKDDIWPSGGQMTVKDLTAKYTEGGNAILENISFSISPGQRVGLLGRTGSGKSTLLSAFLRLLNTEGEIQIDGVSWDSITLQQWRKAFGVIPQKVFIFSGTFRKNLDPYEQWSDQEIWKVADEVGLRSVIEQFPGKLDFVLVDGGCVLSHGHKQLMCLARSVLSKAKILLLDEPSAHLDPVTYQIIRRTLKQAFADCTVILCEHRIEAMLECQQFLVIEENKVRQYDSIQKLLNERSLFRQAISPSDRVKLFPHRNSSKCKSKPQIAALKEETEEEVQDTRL

| Structure (SMILES) | EC50 [1] [µM] | EC50 [2] [µM] | Maximum % activity (with co-corrector) (with co-corrector (2 μM)) | EC50 [3] [µM] | EC50 [4] [µM] | Maximum % activity (with co-corrector) [5] | further results |
| --- | --- | --- | --- | --- | --- | --- | --- |
| COc1ccc(C(C)(C)C)cc1CN[C@H]1[C@H](C(C)(C)C)[C@@H](C(=O)O)N(C(=O)C2CCCC(F)(F)C2)[C@H]1c1cccnc1N(C)C (single isomer, unassigned) [Example 44, (2S,3S,4S,5S)-3-tert-butyl-4-{[(5-tert-butyl-2-methoxyphenyl)methyl]amino}-1-[(1S*)-3,3-difluorocyclohexane-1-carbonyl]-5-[2-(dimethylamino)pyridin-3-yl]pyrrolidine-2-carboxylic acid] | 1 to 10 | < 1 | +++ (≥350) | – | – | – | Maximum % activity (without co-corrector) (without co-corrector): +++ (≥200) |
| COc1ccc(C(C)(C)C)cc1CN[C@H]1[C@H](C(C)(C)C)[C@@H](C(=O)O)N(C(=O)C2CCc3ccccc3O2)[C@H]1c1ccccc1 (single isomer, unassigned) [Example I-83] | 1 to 10 | 1 to 10 | +++ (≥350) | – | – | – | Emax (without co-corrector): 100 to 200% |
| COc1ccc(C(C)(C)C)cc1CN[C@H]1[C@H](C(C)(C)C)[C@@H](C(=O)O)N(C(=O)C(OC)C2CC2)[C@H]1c1ccccc1 (single isomer, unassigned) [Example I-95] | 1 to 10 | 1 to 10 | +++ (≥350) | – | – | – | Emax (without co-corrector): > 200% |
| COc1ccc(C(C)(C)C)cc1CN[C@H]1[C@H](C(C)(C)C)[C@@H](C(=O)O)N(C(=O)C(OC)C2CC2)[C@H]1c1ccccc1 (single isomer, unassigned) [Example I-96] | 1 to 10 | – | +++ (≥350) | – | – | – | – |
| COc1ccc(C(C)(C)C)cc1CN[C@H]1[C@H](C(C)(C)C)[C@@H](C(=O)O)N(C(=O)C2Cc3ccccc3O2)[C@H]1c1cccnc1OC (single isomer, unassigned) [Example I-165] | < 1 | < 1 | +++ (≥350) | – | – | – | Emax (without co-corrector): 100 to 200% |
| COc1ccc(C(C)(C)C)cc1CN[C@H]1[C@H](C(C)(C)C)[C@@H](C(=O)O)N(C(=O)C2Cc3ccccc3O2)[C@H]1c1cccnc1OC (single isomer, unassigned) [Example I-166] | 1 to 10 | < 1 | +++ (≥350) | – | – | – | Maximum % activity (without co-corrector) (without co-corrector): + (<100) |
| COc1ccc(C2(C(F)(F)F)CC2)cc1CN[C@H]1[C@H](C(C)(C)C)[C@@H](C(=O)O)N(C(=O)C2Cc3ccccc3O2)[C@H]1c1cccnc1N(C)C (single isomer, unassigned) [Example I-175] | < 1 | < 1 | – | – | – | – | Maximum % activity (with co-corrector) (with co-corrector (2 μM), 2 µM): +++ (≥350); Emax (without co-corrector): < 100% |
| COc1nc(C(C)(C)C)ccc1CN[C@H]1[C@H](C(C)(C)C)[C@@H](C(=O)O)N(C(=O)C2Cc3ccccc3O2)[C@H]1c1ccccc1 (single isomer, unassigned) [Example I-181] | < 1 | < 1 | +++ (≥350) | – | – | – | Emax (without co-corrector): < 100% |
| COc1ccc(C(C)(C)C)cc1CN[C@H]1[C@H](C(C)(C)C)[C@@H](C(=O)O)N(C(=O)C2CCCN(C)C2=O)[C@H]1c1ccccc1 (single isomer, unassigned) [Example I-191] | 1 to 10 | 1 to 10 | +++ (≥350) | – | – | – | Emax (without co-corrector): > 200% |
| COc1cc(C(F)(F)F)ccc1CN[C@@H]1[C@@H](C(C)(C)C)[C@H](C(=O)O)N(C(=O)C(C)Oc2ccccc2)[C@@H]1c1ccccc1 (single isomer, unassigned) [II-58] | – | – | – | 1 to 10 | 1 to 10 | ++ (≥150 and <350) | Emax (CSE-HRP, without co-corrector): < 100% |
| COc1cc(C(F)(F)F)ccc1CN[C@@H]1[C@@H](C(C)(C)C)[C@H](C(=O)O)N(C(=O)C(C)Oc2ccccc2)[C@@H]1c1ccccc1 (single isomer, unassigned) [II-67] | – | – | – | 1 to 10 | – | ++ (≥150 and <350) | – |
| COc1cc(C(F)(F)F)ccc1CN[C@@H]1[C@@H](C(C)(C)C)[C@H](C(=O)O)N(C(=O)C(C)c2ccccc2)[C@@H]1c1ccccc1 (single isomer, unassigned) [II-80] | – | – | – | 1 to 10 | 1 to 10 | +++ (≥350) | Emax (CSE-HRP, without co-corrector): 100 to 200% |
| COc1ccc(C(C)(C)C)cc1CN[C@H]1[C@H](C(C)(C)C)[C@@H](C(=O)O)N(C(=O)C2CCc3ccccc3O2)[C@H]1c1ccccc1 (single isomer, unassigned) [II-164] | – | – | – | < 1 | < 1 | +++ (≥350) | Emax (CSE-HRP, without co-corrector): > 200% |
| COc1ccc(C(C)(C)C)cc1CN[C@H]1[C@H](C(C)(C)C)[C@@H](C(=O)O)N(C(=O)C(C)n2cc(Cl)c(C)n2)[C@H]1c1ccccc1 (single isomer, unassigned) [II-237] | – | – | – | 1 to 10 | 1 to 10 | +++ (≥350) | Maximum % activity (without co-corrector) (CSE-HRP, without co-corrector): + (<100) |
| COc1ccc(C(F)(F)F)cc1CN[C@H]1[C@H](C(C)(C)C)[C@@H](C(=O)O)N(C(=O)C2Cc3ccccc3O2)[C@H]1c1ccccc1 (single isomer, unassigned) [II-265] | – | – | – | 1 to 10 | 1 to 10 | – | Maximum % activity (with co-corrector) [6]: ++ (≥150 and <350); Emax (CSE-HRP, without co-corrector): < 100% |
| COc1ccc(C(F)(F)F)cc1CN[C@H]1[C@H](C(C)(C)C)[C@@H](C(=O)O)N(C(=O)C2Cc3ccccc3O2)[C@H]1c1ccccc1 (single isomer, unassigned) [II-266] | – | – | – | 1 to 10 | < 1 | – | Maximum % activity (with co-corrector) [6]: +++ (≥350); Maximum % activity (without co-corrector) (CSE-HRP, without co-corrector): ++ (≥100 and <200) |
| COc1ccc(C(C)(C)C)cc1CN[C@H]1[C@H](C(C)(C)C)[C@@H](C(=O)O)N(C(=O)C(OC)c2cccc(Cl)c2)[C@H]1c1ccccc1 (single isomer, unassigned) [II-270] | – | – | – | < 1 | < 1 | +++ (≥350) | Emax (CSE-HRP, without co-corrector): > 200% |
| COc1ccc(C(C)(C)C)cc1CN[C@H]1[C@H](C(C)(C)C)[C@@H](C(=O)O)N(C(=O)C(OC)c2cccc(Cl)c2)[C@H]1c1ccccc1 (single isomer, unassigned) [II-271] | – | – | – | 1 to 10 | < 1 | +++ (≥350) | Maximum % activity (without co-corrector) (CSE-HRP, without co-corrector): +++ (≥200) |
| COc1ccc(C(C)(C)C)cc1CN[C@H]1[C@H](C(C)(C)C)[C@@H](C(=O)O)N(C(=O)C2Cc3ccccc3O2)[C@H]1c1ccccc1 (single isomer, unassigned) [II-272] | – | – | – | 1 to 10 | 1 to 10 | +++ (≥350) | Emax (CSE-HRP, without co-corrector): 100 to 200% |
| COc1ccc(C(C)(C)C)cc1CN[C@H]1[C@H](C(C)(C)C)[C@@H](C(=O)O)N(C(=O)C2Cc3ccccc3O2)[C@H]1c1cccnc1N(C)C (single isomer, unassigned) [II-421] | 1 to 10 | 1 to 10 | – | – | – | – | Emax [7]: < 100%; Maximum % activity (with co-corrector) [8]: ++ (≥150 and <350) |
| COc1nc(C(C)(C)C)ccc1CN[C@H]1[C@H](C(C)(C)C)[C@@H](C(=O)O)N(C(=O)C2Cc3ccccc3O2)[C@H]1c1ccccc1 (single isomer, unassigned) [II-430] | < 1 | – | – | – | – | – | Emax [7]: < 100%; Maximum % activity (with co-corrector) [8]: ++ (≥150 and <350) |
| COc1ccc(C(C)(C)C)cc1CN[C@H]1[C@H](C(C)(C)C)[C@@H](C(=O)O)N(C(=O)C2CCc3ccccc3O2)[C@H]1c1cccnc1N(C)C (single isomer, unassigned) [II-438] | 1 to 10 | – | – | – | – | – | Emax [7]: < 100%; Maximum % activity (with co-corrector) [8]: ++ (≥150 and <350) |
| COc1ccc(C(C)(C)C)cc1CN[C@H]1[C@H](C(C)(C)C)[C@@H](C(=O)O)N(C(=O)C2CCCN(C)C2=O)[C@H]1c1ccccc1 (single isomer, unassigned) [II-444] | 1 to 10 | – | – | – | – | – | Emax [7]: < 100%; Maximum % activity (with co-corrector) [8]: ++ (≥150 and <350) |
| COc1ccc(C(C)(C)C)cc1CN[C@H]1[C@H](C(C)(C)C)[C@@H](C(=O)O)N(C(=O)C2CCc3ccc(F)cc3O2)[C@H]1c1cccnc1N(C)C (single isomer, unassigned) [II-452] | 1 to 10 | 1 to 10 | – | – | – | – | Emax [7]: 100 to 200%; Maximum % activity (with co-corrector) [9]: +++ (≥350) |
| COc1ccc(C(C)(C)C)cc1CN[C@H]1[C@H](C(C)(C)C)[C@@H](C(=O)O)N(C(=O)C2CCc3ccc(F)cc3O2)[C@H]1c1cccnc1N(C)C (single isomer, unassigned) [II-453] | > 10 | < 1 | – | – | – | – | Maximum % activity (without co-corrector) [7]: + (<100); Maximum % activity (with co-corrector) [9]: ++ (≥150 and <350) |
